Source: patent US6444434B1, “FVIIa/TF activity inhibiting compounds” (Novo Nordisk A/S, priority 1999, dated 2002)
Where two headings read alike, the source gives them in different places.

How the values were obtained:
TF/FVIIa = biological target: T1, TF/FVIIa (Homo sapiens, UniProt P08709); test: FVIIa/TF amidolytic assay; assay type: biochemical; conditions: 10 nM FVIIa, 25 nM soluble TF, 1 mM S-2288
T1 construct: Single-chain FVII may be converted to two-chain FVIIa by factor Xa; 20 microliters of soluble TF (250 nM in buffer)
T1 sequence (P08709 61-212 limits assumed): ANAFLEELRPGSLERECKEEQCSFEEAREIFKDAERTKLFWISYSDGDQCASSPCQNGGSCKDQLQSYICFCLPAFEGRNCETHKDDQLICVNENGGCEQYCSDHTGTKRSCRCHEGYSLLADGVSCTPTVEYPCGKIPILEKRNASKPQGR
T1 sequence (P08709 213-466 limits assumed): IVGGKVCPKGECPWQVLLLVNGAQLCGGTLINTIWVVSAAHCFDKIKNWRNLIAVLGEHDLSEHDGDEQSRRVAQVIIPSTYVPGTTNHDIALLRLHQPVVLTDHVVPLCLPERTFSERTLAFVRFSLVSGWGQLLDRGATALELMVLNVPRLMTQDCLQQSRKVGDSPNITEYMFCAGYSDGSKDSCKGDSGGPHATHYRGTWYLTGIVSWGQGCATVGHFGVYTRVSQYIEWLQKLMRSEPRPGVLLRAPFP
Method: (§1) Compound solutions and buffer are the same as in the above FX activation assay. 150 microliters of FVIIa (13.3 nM in buffer), 20 microliters of soluble TF. (250 nM in buffer), 10 microliters of test compound (various concentrations in DMSO) and 20 microliters of substrate S-2288 (10 mM in water) is mixed in microtiter plate well. This gives final concentrations of FVII(a, TF and S-2288 of 10 nM, 25 nM and 1 mM, respectively. The absorbance at 405 nm is measured continuously for 20 minutes. The degree of inhibition is calculated from the slope of the absorbance curve compared to the curve obtained when using DMSO without test compound.
as §1, with “TF” for “TF.”, “DM80)” for “DMSO)”, “FVIIa,” for “FVII(a,”

[1] = biological target: T2, FVIIa/TF-catalyzed activation of FX (Homo sapiens, UniProt P08709); test: FX activation assay (FVIIa/TF-catalyzed FX activation); assay type: biochemical
T2 construct: Single-chain FVII may be converted to two-chain FVIIa by factor Xa

FXa = FXa (Homo sapiens, UniProt P00742); test: FXa amidolytic assay; assay type: biochemical; conditions: 1 nM FXa, 1 mM S-2765; read-out: FX amidolytic IC50 FX
Method: (§2) Compound solutions and buffer are the same as in the above FX activation assay. 170 microliters of FXa (1.17 nM in buffer), 10 microliters of test compound (various concentrations in DMSO) and 20 microliters of substrate S-2765 (10 mM in water) is mixed in a microtiter plate well. This gives-final concentrations of FXa and S-2765 of 1 nM and 1 mM, respectively. The absorbance at 405 nm is measured continuously for 20 minutes. The degree of inhibition is calculated from the slope of the absorbance curve compared to the curve obtained when using DMSO without test compound.
as §2, with “gives final” for “gives-final”

[2] = tested on: citrated normal human plasma; test: FVIIa/TF-initiated plasma clotting assay; conditions: ratio of clotting time with/without compound; final compound concentration 0.33 mM; thromboplastin (Innovin)
Method: The test compounds, 20 mM in DMSO, are diluted in citrated normal human plasma just before the analysis (1+19) and placed in the sample carousel. 55 μl sample (compound in plasma) is mixed with 55 μl of thromboplastin (Innovin, Dade) and incubated for 5 min. The clotting reaction is started by adding 55 μl of a 25-mM CaCl2 solution, yielding a final compound concentration of 0.33 mM. The clotting time is measured using an ACL 300 R coagulometer. The ratio between the clotting time in the presence and absence of test compound is used to quantify the anticoagulant efficiency.

[3] = biological target: T3, FVIIa/TF-catalyzed activation of FX (Homo sapiens, UniProt P08709+P13726); test: FX activation assay (FVIIa/TF-catalyzed FX activation); assay type: biochemical; conditions: second part of table, Examples 14-22
T3 construct: Single-chain FVII may be converted to two-chain FVIIa by factor Xa

[4] = 100 pM FVIIa, 5 pM TF, 175 nM FX, FXa read with S-2765, read-out: TF/FVII/FX (FX activation) IC50 FXa
[5] = second part of table, Examples 14-22, read-out: IC50 (μM) FX activation by FVIIa/TF

T2 sequence (P13726 33-295, one chain of several, further chain): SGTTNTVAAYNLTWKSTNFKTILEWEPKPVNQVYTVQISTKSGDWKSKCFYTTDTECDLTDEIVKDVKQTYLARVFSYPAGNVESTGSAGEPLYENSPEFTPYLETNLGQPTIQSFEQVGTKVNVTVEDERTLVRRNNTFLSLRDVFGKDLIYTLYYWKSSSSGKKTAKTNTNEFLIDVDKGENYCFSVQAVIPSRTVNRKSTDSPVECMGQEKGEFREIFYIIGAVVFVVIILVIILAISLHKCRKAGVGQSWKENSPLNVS
Chain of FXa (P00742 41-179 limits assumed): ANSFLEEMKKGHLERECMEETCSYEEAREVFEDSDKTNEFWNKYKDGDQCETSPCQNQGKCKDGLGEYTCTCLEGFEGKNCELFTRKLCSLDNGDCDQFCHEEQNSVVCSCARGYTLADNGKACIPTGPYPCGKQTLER
Chain of FXa (P00742 235-488 limits assumed): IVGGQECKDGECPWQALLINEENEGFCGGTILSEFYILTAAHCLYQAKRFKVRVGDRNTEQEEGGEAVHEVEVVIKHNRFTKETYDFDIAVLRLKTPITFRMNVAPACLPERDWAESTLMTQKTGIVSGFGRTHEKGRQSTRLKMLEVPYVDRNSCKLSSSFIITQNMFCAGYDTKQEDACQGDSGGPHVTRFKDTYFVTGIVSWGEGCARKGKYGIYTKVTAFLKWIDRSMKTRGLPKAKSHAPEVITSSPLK
T3 sequence (P13726 33-295, one chain of several): as the sequence (P13726 33-295, one chain of several, further chain) above

| IC50 (TF/FVIIa) | IC50 [1, 4] | IC50 (FXa) | IC50 [1, 5] | SMILES | Clot ratio [2] | IC50 [3] |
| --- | --- | --- | --- | --- | --- | --- |
| – | – | – | < 20 µM | CCN(CC)CCCC(C)Nc1nc(C=Cc2ccc(Br)cc2Br)nc2cc(Cl)ccc12 (stereo not drawn) [Example 15, N4-{7-chloro-2-[2-(2,4-dibromo-phenyl)-vinyl]-quinazolin-4-yl}-N1,N1-diethyl-pentane-1,4-diamine] | – | – |
| – | – | – | < 20 µM | CCN(CC)CCCC(C)Nc1nc(/C=C/c2ccc(Br)cc2)nc2cc(Cl)ccc12 (stereo not drawn) [Example 16, N4-{2-[2-(4-bromo-phenyl)-vinyl]-7-chloro-quinazolin-4-yl}-N1,N1-diethyl-pentane-1,4-diamine] | – | – |
| – | – | – | < 20 µM | CN(C)CCCN(C)Cc1cn(Cc2ccc(Cl)c(Cl)c2)c2cc(Cl)c(OCc3ccccc3)cc12 [Example 17, N-[5-benzyloxy-6-chloro-1-(3,4-dichlorobenzyl)-1H-indol-3-ylmethyl]-N,N′N′-trimethylpropan-1,3-diamine] | – | – |
| – | – | – | < 20 µM | CN(C)C1CCN(Cc2c[nH]c3ccc(OCc4ccccc4)cc23)CC1 [Example 18, N-[5-benzyloxy-1H-indol-3-ylmethyl]-4-dimethylaminopiperidine] | – | – |
| – | – | – | < 20 µM | NC(CC(=O)NC(Cc1c[nH]c2ccccc12)C(=O)O)(P(=O)(O)O)P(=O)(O)O (stereo not drawn) [Example 19, 2-(3-amino-3,3-bis-phosphono-propionylamino)-3-(1H-indol-3-yl)-propionic acid] | – | – |
| – | – | – | < 20 µM | CN(C)CCCNC(=O)c1cc2cc(OCc3ccccc3)ccc2n1Cc1ccc(Cl)c(Cl)c1 [Example 20] | – | – |
| – | – | – | < 20 µM | CCC(=C(c1ccc(OC)cc1)c1ccc(OC)cc1)c1cn(CC(O)CN2CCCC2)c2ccccc12 (stereo not drawn) [Example 22, 1-{3-[1-ethyl-2,2-bis-(4-methoxy-phenyl)-vinyl]-indol-1-yl}-3-pyrrolidin-1-yl-propan-2-ol] | – | – |

Continued, compound first:

| SMILES | IC50 (TF/FVIIa) | IC50 [1, 4] | IC50 (FXa) | IC50 [1, 5] | Clot ratio [2] | IC50 [3] |
| --- | --- | --- | --- | --- | --- | --- |
| N=c1n(CCN2CCCC2)c2ccccc2n1CC(O)COc1ccc(Cl)cc1 (stereo not drawn) [Example 5, 1-(4-Chloro-phenoxy)-3-[2-imino-3-(2-pyrrolidin-1-yl-ethyl)-2,3-dihydro-benzoimidazol-1-yl]-propan-2-ol] | > 200 µM | 18 µM | > 200 µM | – | >3 | – |
| CN(C)CCNCC(O)CN1CCn2c3c(c4cc(C5CCCCC5)ccc42)CCCC31 (stereo not drawn) [Example 6, 1-(8-Cyclohexyl-1,2,3a,4,5,6-hexahydro-pyrazino[3,2,1-jk]carbazol-3-yl)-3-(2-dimethylamino-ethylamino)-propan-2-ol] | > 200 µM | 17 µM | > 200 µM | – | >3 | – |
| COc1cccc(/C=N\Nc2nc(Nc3ccccc3)nc(Nc3ccc(C)cc3C)n2)c1O [Example 7, 2-{[4-(2,4-Dimethyl-phenylamino)-6-phenylamino-[1,3,5]triazin-2-yl]-hydrazonomethyl}-6-methoxy-phenol] | > 200 µM | 17 µM | > 200 µM | – | 1.03 | – |
| CN1CCN(CC(=O)N2CCn3c4c(c5cc(C6CCCCC6)ccc53)CCCC42)CC1 (stereo not drawn) [Example 8, 1-(8-Cyclohexyl-1,2,3a,4,5,6-hexahydro-pyrazino[3,2,1-jk]carbazol-3-yl)-2-(4-methyl-piperazin-1-yl)-ethanone] | > 200 µM | 14 µM | > 200 µM | – | 2.72 | – |
| CC(C)Cc1ccc(C(C)CNC(=N)C(C)c2ccc(CC(C)C)cc2)cc1 (stereo not drawn) [Example 9, 2-(4-Isobutyl-phenyl)-N-[2-(4-isobutyl-phenyl)-propyl]-propionamidine] | > 200 µM | 11 µM | > 200 µM | – | >3 | – |
| CCCCCCCCCCCCCCCCn1c2c(c(=N)c3c1CCC3)CCC2 [Example 10, 4-Hexadecyl-2,3,4,5,6,7-hexahydro-1H-4-aza-s-indacen-8-ylideneamine] | > 200 µM | 7.7 µM | > 200 µM | – | 2.84 | – |
| CCC(=C(c1ccc(OC)cc1)c1ccc(OC)cc1)c1cn(CC(O)CN2CCCC2)c2ccccc12 (stereo not drawn) [Example 11, 1-{3-[1-Ethyl-2,2-bis-(4-methoxy-phenyl)-vinyl]-indol-1-yl}-3-pyrrolidin-1-yl-propan-2-ol] | > 200 µM | 7.7 µM | > 200 µM | – | 1.64 | – |
| COc1ccc(/C=C2\c3ccccc3-c3ccc(C(=O)CCCCN4CCCCC4)cc32)cc1OC [Example 12, 1-[9-(3,4-Dimethoxy-benzylidene)-9H-fluoren-2-yl]-5-piperidin-1-yl-pentan-1-one] | > 200 µM | 7 µM | > 200 µM | – | 1.2 | – |
| CCCCCCCOc1ccc(/C(=N\C2CC(C)(C)NC(C)(C)C2)c2ccccc2)cc1 [Example 13, [(4-Heptyloxy-phenyl)-phenyl-methylene]-(2,2,6,6-tetramethylpiperidin-4-yl)-amine] | > 200 µM | 5.8 µM | > 200 µM | – | 2.06 | – |
| CCN(CC)CCCC(C)Nc1nc(/C=C/C=C/c2ccccc2)nc2cc(Cl)ccc12 (stereo not drawn) [Example 14, N-[7-chloro-2-(4-phenyl-buta-1,3-dienyl)-quinazolin-4-yl]-5-N,N-diethyl-aminopentane-2-amine] | – | – | – | < 20 µM | – | – |
| CN(C)CCc1cn(Cc2ccc(Cl)c(Cl)c2)c2cc(Cl)c(OCc3ccccc3)cc12 [Example 21, N,N-dimethyl-1-(3,4-dichlorobenzyl)-5-benzyloxy-6-chlorotrypamine] | – | – | – | – | – | < 20 µM |
